The test system of one data set is ERK1/2. Description: ERK1/2 phosphorylation in SHSY5Y cells. Type of data set: cell-based, human. To be noted: 10 μM ibogaine 3 hours, U0126 20 μM, PD98059 40 μM 30 minutes or PI-PLC 0.3 unit/ml 1 h pre-incubation. How it is done: ERK2 and pERK1/2 were detected by Western blot analysis with anti-ERK2 and pERK1/2 antibodies respectively. Line-graph depicts the mean ratio (pERK2/ERK2)±SD of 3 experiments. […] Panel C: Cells were pre-incubated with 0.3 unit/ml PI-PLC for 1 h (lane 3).

Data set [1] deals with C57B1/6 mice or BDNF+/+ and BDNF± mice. As to the kind of experiment: Ethanol self-administration in mice (two-bottle choice). Format: in vivo, mouse. The conditions noted are these: for ethanol consumption: wildtype mice. Here is the method:
Voluntary ethanol intake in singly-housed adult male C57B1/6 mice or BDNF+/+ and BDNF±mice was established by placing a bottle containing 10% ethanol in tap water (v/v) on the home cage next to an identical bottle filled with tap water for at least 1 month. Only subjects that consumed at least 40% of their total fluid volume as ethanol were included in these studies. All injections (PBS/10% glycerol vehicle, Tat-KEP27, K252a and/or Tat-RACK1) were conducted at 15:00 hours; ethanol and water intake were measured 18 hours later at 09:00 hours. Treatments were tested using a within-subjects design; subjects received one or two injections per week. Chemicals were administered in injection volumes of 1-3 ml per 100 g body weight. The effect of a deprivation period on consumption was tested by allowing mice continuous access to a bottle of 20% ethanol in tap water and a bottle of tap water on the home cage for 2 weeks. The ethanol bottle was removed for 2 weeks. Intake of 20% ethanol and of water was measured for 4 days after the ethanol was reintroduced.

The target of a further data set is T1, Trk receptor (Rattus norvegicus, UniProt Q63604).
T1 construct: from tissue; host or cells: striatal slices (dorsal striatum and NAc) of Sprague-Dawley rats
T1 sequence (Q63604 32-821): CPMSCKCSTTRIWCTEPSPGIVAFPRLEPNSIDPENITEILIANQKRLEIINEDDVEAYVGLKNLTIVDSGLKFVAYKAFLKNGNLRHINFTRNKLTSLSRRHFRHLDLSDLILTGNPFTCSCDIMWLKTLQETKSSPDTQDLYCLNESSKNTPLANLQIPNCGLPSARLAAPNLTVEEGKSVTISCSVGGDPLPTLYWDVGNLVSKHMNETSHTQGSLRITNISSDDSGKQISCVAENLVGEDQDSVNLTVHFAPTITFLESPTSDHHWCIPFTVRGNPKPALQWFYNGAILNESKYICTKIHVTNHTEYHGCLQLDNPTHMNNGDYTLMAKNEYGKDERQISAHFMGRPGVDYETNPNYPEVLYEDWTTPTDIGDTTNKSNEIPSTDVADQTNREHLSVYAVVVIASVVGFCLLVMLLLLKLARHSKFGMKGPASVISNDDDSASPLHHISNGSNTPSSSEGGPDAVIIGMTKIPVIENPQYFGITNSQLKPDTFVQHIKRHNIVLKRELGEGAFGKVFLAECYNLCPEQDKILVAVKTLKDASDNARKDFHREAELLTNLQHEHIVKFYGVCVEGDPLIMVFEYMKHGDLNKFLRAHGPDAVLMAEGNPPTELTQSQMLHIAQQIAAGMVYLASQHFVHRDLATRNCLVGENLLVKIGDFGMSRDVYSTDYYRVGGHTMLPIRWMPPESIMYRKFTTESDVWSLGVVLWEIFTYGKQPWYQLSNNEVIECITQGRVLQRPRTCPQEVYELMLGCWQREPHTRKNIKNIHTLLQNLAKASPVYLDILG
As to the kind of experiment: Trk phosphorylation in striatal slices (Western blot). Type of data set: cell-based. The conditions noted are these: 1 μM Tat-RACK1 together with 200 nM K252a, 4 hours. How it is done:
Coronal striatal slices ([…]) were prepared from 3-4 week old male Sprague-Dawley rats. Slices were maintained for at least 1 hour in artificial cerebrospinal fluid (αCSF) containing (in mM): 126 NaCl, 1.2 KCl, 1.2 NaH2PO4, 0.01 MgCl2, 2.4 CaCl2, 18 NaHCO3 and 11 glucose saturated with 95% O2/5% CO2 at […]. […] Brain homogenates were prepared after in vivo protein transduction. Adult C57B1/6 mice were injected i.p. with vehicle or 4 mg/kg of Tat-RACK1. Four hours later, brains were immediately removed and homogenized and protein extracts were prepared as described above.
Samples ([…]) were resolved on a 10% SDS-PAGE and transferred to a nitrocellulose membrane. Membranes were probed with the appropriate antibodies and immunoreactivity was detected with enhanced chemilluminescence (Amersham Bioscience) and processed using the STORM system (Molecular Dynamic).

Data set [2] deals with BDNF. Description: BDNF secretion from dissociated hippocampal neurons (ELISA). Type of data set: cell-based, rat. The conditions noted are these: 1 μM, 6 hours. How it is done: BDNF or NGF secretion was measured in media from dissociated hippocampal neurons or from striatal slices using Emax ImmunoAssay according to (Balkowiec and Katz (2000) J. Neurosci., 20: 7417-7423)) and (Heaton et al. (2003) Brain Res. Dev. Brain Res. 140: 237-252), respectively. BDNF or NGF concentrations were interpolated from the standard curves (linear range of 7.8-500 pg/ml).

The subject of a further data set is Long Evans rats. As to the kind of experiment: Ethanol self-administration in rats after intracerebroventricular (i.c.v.) microinjections. Type of data set: in vivo, rat. To be noted: i.c.v. microinjection, intake 24 hours after treatment. Here is the method:
Adult male Long Evans rats were trained in the two-bottle choice ethanol self-administration procedure as described above for mice. Three weeks after ethanol exposure commenced, a 26 gauge cannula was placed into the right lateral ventricle (stereotaxic coordinates AP: −0.8, ML: −1.4, DV: −3.6, relative to bregma) of anesthetized subjects. Three weeks later, subjects received weekly i.c.v. microinjections of vehicle, Tat-RACK1, or the Tat-peptide (injection volume […]) at approximately 15:30, or 3.5 hours before lights out. Intake was measured 24 hours after treatment. All subjects received vehicle and Tat-RACK1 injections; a subset of subjects was also injected with the Tat-peptide. Cannula locations were verified histologically at the conclusion of the experiment.

For data set [3] the following is noted: in vivo; cited from earlier work.
Data set [4] deals with tyrosine hydroxylase (TH). As to the kind of experiment: Tyrosine hydroxylase (TH) protein levels in SHSY5Y cells. Type of data set: cell-based, human. Here is the method: Panel A: SHSY5Y cells were treated with different concentrations (0, 10, 25, and 100 mM) of ethanol for 24 hours. TH protein levels and control Actin levels were determined by Western blot analysis. Histogram depicts the mean ratio (TI/actin)±SD of 3 experiments. Panel B: Cells were treated with media (control), 100 ng/ml of GDNF for 12 h (lane 1), 100 mM ethanol for 24 hours (lane 2), or 100 mM ethanol for 24 hours to which 100 ng/ml GDNF was added for the last 12 hours (lane 3). The cells were lysed for Western blot analysis. Histogram depicts the mean ratio (TH/actin)±SD of 3 experiments. […] Histogram depicts the mean ratio (TH/actin)±SD of 3 experiments.

The test system of data set [5] is BDNF. As to the kind of experiment: BDNF expression in primary hippocampal cultures (RT-PCR). Type of data set: cell-based, rat. The conditions noted are these: primary hippocampal neurons. Here is the method:
Sprague-Dawley rats (P0) were decapitated and hippocampi were dissected bilaterally. Cells were dissociated by enzyme digestion with papain followed by brief mechanical trituration and plated on poly-D-lysine treated flasks. Cells were plated (1×10^6 cells/chamber) and maintained in Neurobasal media supplemented with B27, penicillin, streptomycin and Glutamax-1 and maintained in culture for 3 weeks. Following treatment, total RNAs were isolated using Trizol reagent and reverse transcribed (RT) using the Reverse Transcription System kit. The RT products were used for analysis of the expression of BDNF and the control gene […] (GPDH) by polymerase chain reaction (PCR) described in (Yaka et al. (2003) J. Biol. Chem. 278: 9630-9638). The PCR products were photographed by Eagle Eye II (Stratagene), and quantified by using NIH Image 1.61.

The subject of data set [6] is primary hippocampal neurons. Description: RACK1 / Tat-RACK1 nuclear localization in primary hippocampal neurons (confocal microscopy). Format: cell-based, rat. To be noted: 100 mM ethanol 30 minutes. Here is the method: Primary hippocampal neurons were washed in cold PBS containing 0.1% Triton X-100, fixed in cold methanol and blocked in PBS containing 0.1% Triton X-100 and 3% Normal Goat Serum. lrmunostaining was performed with monoclonal monoclonal IgG HA antibodies (1:150). Staining was detected with anti FITC antibodies (1:500). Nuclei were detected with the nuclear marker TOTO-3 (1: 10000). Slides were viewed with a laser scanning confocal microscope (Zeiss LSM 510 Meta). Z-field images were processed by obtaining the middle Z field sections using LSM 5 Image Browse (Scion Corporation) and Adobe Photoshop (Adobe Systems Inc.). For immunocytochemistry used to detect the presence of Tat-RACK1 in the brain, C57 mice were injected i.p. with vehicle or 4 mg/kg Tat-RACK1. Animals were decapitated 4 hours post injection and brains were quickly removed and frozen at −50° C. in isopentane. Slide-mounted saggital striatal sections ([…]) were immersed for 10 minutes in cold (−20° C.) mixture of 75% methanol and 25% acetone, re-hydrated, rinsed in PBS and incubated in 10% normal donkey serum. Rat monoclonal anti-HA antibody (1:2,000 in PBS) was applied overnight in a humid chamber. […]

In data set [7] the test system is BDNF. Description: BDNF expression in vivo (RT-PCR of tissue punches). Details: species or system mouse. The conditions noted are these: C57 mice, voluntary consumption of 10% ethanol for 2 weeks. The text has this:
The primers for NGF were designed as follows: […]

Another data set deals with NGF. The conditions noted are these: C57 mice, voluntary ethanol consumption, striatum and PFC. How it is done: Adult male C57B1/6 mice were decapitated 3 hours after the start of the dark cycle, for mice with access to ethanol, or 6 hours following i.p. injection of vehicle or Tat-RACK1 (4 mg/kg), for naïve animals. Brains were rapidly removed and bilateral tissue punches of the striatum and PFC were frozen in liquid nitrogen. BDNF, NGF and GPDH expression were analyzed by RT-PCR as described above for hippocampal cultures. The primers for NGF were designed as follows: […]

Take `COc1cccc(-c2cc(=O)c3ccccc3o2)c1N` [PD98059]: the “ERK1/2 phosphorylation induced by ibogaine” value in the data set with ERK1/2 is on record as “blocked”.
Regarding `COC(=O)[C@@]1(O)C[C@H]2O[C@]1(C)n1c3ccccc3c3c4c(c5c6ccccc6n2c5c31)C(=O)NC4` [K252a], the “reduction in ethanol intake by Tat-RACK1, co-injection with K252a” value in data set [1] (mice, Tat-RACK1 4 mg/kg + K252a) is reported as “prevented the reduction in ethanol intake”. The ethanol consumption result in data set [1] (K252a 5 mg/kg i.p.) and in data set [1] (K252a 25 mg/kg i.p.) was “increased” each time. The “Tat-RACK1-induced Trk phosphorylation” value on Trk receptor is “reduced”.
For the molecule YGRKKRRQRRR [Tat-peptide], in the data set with BDNF [2], the “secretion of BDNF” value is “no change”. For the same molecule, the ethanol intake entry in the data set with Long Evans rats was “no effect”.
`CC[C@H]1C[C@H]2C[C@H]3c4[nH]c5ccc(O)cc5c4CCN(C2)[C@@H]13` [Noribogaine]: in [3], the “metabolite detection after ibogaine administration” value was “detected at high concentrations within 24 hours after administration”.
As for `CCO` [ethanol], in [4], the “ethanol concentration resulting in an increase in TH immunoreactivity (as low as)” value is on record as 10 mM. Besides, in data set [4] (ethanol 24 hours, dose-dependent), the “protein level of TH” value was “significant increase”. For the same molecule, in the data set with BDNF [5] (0.5 hours), the “ethanol concentrations (as low as) that increased BDNF expression” value is 10 to 25 mM. Moreover, the “expression levels of BDNF” value with BDNF [5] (acute ethanol, dose- and time-dependent) is “increased”. The BDNF expression entry with BDNF [5] (continuous ethanol 24 or 48 hours) is “reduced BDNF expression to below basal levels”. In addition, the RACK1 nuclear translocation entry in data set [6] is reported as “translocation of RACK1 into the nucleus”. In the data set on BDNF [7], the “expression levels of BDNF in the prefrontal cortex (PFC)” value was “but not the prefrontal cortex” and the “expression levels of BDNF in the striatum” value is given as “significantly increased”. Also, the “expression of NGF” value with NGF is given as “no change”.
For the molecule `N#CC(=C(/N)Sc1ccccc1N)/C(C#N)=C(\N)Sc1ccccc1N` [U0126], in the data set on ERK1/2, the “ERK1/2 phosphorylation induced by ibogaine” value is given as “blocked”.

B1: GDNF: Human glial-cell line derived neurotrophic factor (protein)
chain: SPDKQMAVLPRRERNRQAAAANPENSRGKGRRGQRGKNRGCVLTAIHLNVTDLGLGYETKEELIFRYCSGSCDAAETTYDKILKNLSRNRRLVSDKVGQACCRPIAFDDDLSFLDDNLVYHILRKHSAKRCGCI
On to B1, for which, in data set [4] (100 mM ethanol 24 hours, GDNF 100 ng/ml or ibogaine 10 μM added for last 12 hours), the “ethanol-induced increase in TH immunoreactivity” value is reported as “inhibited”.

The record behind these values is patent US20050203011A1, “Mitigating symptoms and behaviors of substance abuse by modulating GDNF or BDNF pathway activity” (The Regents of the University of California, priority 2003, published 2005).
